Assay results taken from ChEMBL document CHEMBL1129002, “Synthesis and biological evaluation of both enantiomers of L-761,000 as inhibitors of cyclooxygenase 1 and 2” (Bioorg Med Chem Lett, 1996).
pIC50: −log10 of the molar value.

Experiments:
[1] = system: Rattus norvegicus; assay: Compound was evaluated in vivo for its activity in the rat paw edema assay.; format: functional
[2] = system: Rattus norvegicus; assay: Compound was evaluated in vivo for its activity in the rat pyresis assay.; format: functional
[3] = molecular target: T1, Prostaglandin G/H synthase 1 (Rattus norvegicus, UniProt Q63921); assay: In vitro inhibition of Prostaglandin G/H synthase 1
T1 sequence (Q63921 whole entry): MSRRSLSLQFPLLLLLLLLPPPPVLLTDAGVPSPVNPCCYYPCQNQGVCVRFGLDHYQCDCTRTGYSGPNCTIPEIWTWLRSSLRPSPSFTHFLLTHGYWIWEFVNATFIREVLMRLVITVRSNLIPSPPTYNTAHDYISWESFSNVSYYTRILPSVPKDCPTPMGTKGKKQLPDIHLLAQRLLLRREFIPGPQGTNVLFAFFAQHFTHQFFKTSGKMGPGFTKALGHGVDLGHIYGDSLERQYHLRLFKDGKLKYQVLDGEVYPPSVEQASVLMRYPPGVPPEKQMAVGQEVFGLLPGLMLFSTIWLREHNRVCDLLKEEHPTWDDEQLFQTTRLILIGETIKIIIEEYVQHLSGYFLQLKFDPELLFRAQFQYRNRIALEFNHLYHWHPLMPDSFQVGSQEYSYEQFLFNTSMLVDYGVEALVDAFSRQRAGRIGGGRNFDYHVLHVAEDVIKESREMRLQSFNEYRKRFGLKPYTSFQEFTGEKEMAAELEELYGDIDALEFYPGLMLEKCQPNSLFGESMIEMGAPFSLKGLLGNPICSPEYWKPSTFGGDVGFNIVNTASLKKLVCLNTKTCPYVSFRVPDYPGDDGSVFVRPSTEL

[4] = molecular target: T2, Prostaglandin G/H synthase 2 (Rattus norvegicus, UniProt P35355); assay: In vitro inhibition of Prostaglandin G/H synthase 2
T2 sequence (P35355 whole entry): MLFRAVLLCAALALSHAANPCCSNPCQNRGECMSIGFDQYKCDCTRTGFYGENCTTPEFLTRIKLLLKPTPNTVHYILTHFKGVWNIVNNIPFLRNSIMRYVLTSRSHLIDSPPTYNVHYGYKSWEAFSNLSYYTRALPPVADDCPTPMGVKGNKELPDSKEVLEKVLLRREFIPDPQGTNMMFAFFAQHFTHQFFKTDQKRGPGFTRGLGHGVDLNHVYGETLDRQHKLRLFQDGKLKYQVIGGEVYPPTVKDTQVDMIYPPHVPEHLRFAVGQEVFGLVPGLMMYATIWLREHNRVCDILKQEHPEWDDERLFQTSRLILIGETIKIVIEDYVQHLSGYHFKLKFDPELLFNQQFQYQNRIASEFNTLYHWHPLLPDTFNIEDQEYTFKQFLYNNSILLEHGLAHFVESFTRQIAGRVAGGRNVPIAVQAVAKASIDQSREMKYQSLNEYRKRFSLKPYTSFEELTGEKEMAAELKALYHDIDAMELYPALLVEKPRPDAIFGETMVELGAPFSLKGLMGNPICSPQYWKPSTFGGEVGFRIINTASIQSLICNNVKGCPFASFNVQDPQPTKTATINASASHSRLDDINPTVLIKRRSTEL

[5] = species: Rattus norvegicus; assay: Clearance in rat plasma; format: functional, organism-based
[6] = Cmax in rat plasma; format: ADME, organism-based

Row | SMILES | ED30 [1] [mg/kg] | ED50 [2] [mg/kg] | pIC50 [3] | pIC50 [4] | CL (mL.min-1.kg-1) [5] | Cmax [6] [µM]
1 | COc1ccc2c(c1)c(CC(=O)O)c(C)n2C(=O)c1ccc(Cl)cc1 [INDOMETHACIN] | 0.4 | 1 |  |  |  | 
2 | COc1ccc2c(c1)c(CC(C)CC(=O)O)c(C)n2Cc1ccc(Br)cc1 (configuration not stated) | 0.4 |  | < 5.00 | 7.30 | 5.7 | 
3 | COc1ccc2c(c1)c(C[C@H](C)CC(=O)O)c(C)n2Cc1ccc(Br)cc1 | > 3 |  | < 5.00 | 7.70 | 21 | 14.4
4 | COc1ccc2c(c1)c(C[C@@H](C)CC(=O)O)c(C)n2Cc1ccc(Br)cc1 | 0.4 | 1.9 | < 5.00 | 7.22 | 2.8 | 24.3
